Results on two compounds are retold here after publication PMC10770036, “Novel dual inhibitors of PARP and HDAC induce intratumoral STING-mediated antitumor immunity in triple-negative breast cancer” (Cell Death & Disease, 2024).

The subject of test [1] is MDA-MB-436, MDA-MB-231, and MDA-MB-468 cells. Briefly: Colony formation assay. The note with it: low dose. In kind it is cell-based, human. Here is the method:
MDA-MB-231, MDA-MB-436 and MDA-MB-468 cells were seeded at a density of 2,000 cells in 6-well plates and cultured overnight. […] The cells were fixed with 4% paraformaldehyde (Merck) for 1 h at room temperature and stained with 0.1% crystal violet (Beyotime Biotechnology) for 30 min. Under an inverted phase contrast microscope (Leica Microsystems, Heidelberg, Germany), cell colonies were photographed at 5× magnification. All these analyses were performed at least three times.

Test [2] has as its system CCL5 and CXCL10 mRNA. Briefly: RT-PCR of CCL5 and CXCL10 mRNA. The format is cell-based, human. The conditions noted are these: MDA-MB-436 and MDA-MB-468 cells, 48 h. Here is the method: Total RNA was extracted using the Eastep Super Total RNA Extraction Kit (Promega, Charbonnières, France) according to the manufacturer’s protocol. Reverse transcription was performed using HyperScript RT SuperMix for qPCR (APExBIO, Houston, TX, USA). Gene expression was quantified with Hieff qPCR SYBR Green Master Mix (Yeason) on an ABI 7500 (Applied Biosystems, Grand Island, NY, USA). Data were then analyzed using the 2^-ΔΔCT method. The primers were designed and synthesized by Sangon Biotech, and the sequences are shown in Supporting Information Table S1.

The subject of test [3] is MCF-7 cells. Briefly: MTT cell viability assay, MCF-7. The note with it: Homo sapiens, MCF7, 72 h, read-out: IC50 MCF-7. (In general: Tetrazolium assays rely on reduction of a dye to a coloured formazan, in cell work by metabolically active cells.)
Method: (§1) The viability assay was measured by a 3-(4,5-dimethylthiazol-2-yl)−2,5-diphenyltetrazolium bromide (MTT) assay.
(§2) In brief, cells were seeded at a density of 6,000 cells in 96-well plates and cultured overnight. […] After aspiration of the medium, the formazan crystals were dissolved in 100 μL of DMSO. The absorbance at 490 nm was measured using a microplate reader (BioTek). All these analyses were performed at least three times.
Test [4] deals with MCF-10A cells. Description: MTT cell viability assay, MCF-10A. The conditions noted are these: Homo sapiens, 72 h, read-out: IC50 MCF-10A.
Method: as §1, §2
In test [5] the test system is MDA-MB-436 cells. Description: MTT cell viability assay, MDA-MB-436. The conditions noted are these: Homo sapiens, MDA-MB-436, 72 h, read-out: IC50 MDA-MB-436.
Method: as §1, §2
Test [6] has as its system MDA-MB-231 cells. Briefly: MTT cell viability assay, MDA-MB-231. The note with it: Homo sapiens, MDA-MB-231, 72 h, read-out: IC50 MDA-MB-231.
Method: as §1, §2
Test [7] relates to MDA-MB-468 cells. Briefly: MTT cell viability assay, MDA-MB-468. The note with it: Homo sapiens, MDA-MB-468, 72 h, read-out: IC50 MDA-MB-468.
Method: as §1, §2
Test [8] concerns 4T1 tumors. Description: Combination with anti-PD-L1 in syngeneic murine 4T1 model. The format is in vivo, mice. The conditions noted are these: syngeneic 4T1 model; B102 15 mg/kg or B302 50 mg/kg every 2 days; anti-PD-L1 100 μg every 5 days; intraperitoneal. The source says: MDA-MB-436 cells (5 × 10^6) were suspended in PBS and Matrigel (Corning) at a 1:1 ratio and orthotopically injected into the fat pads of 6- to 7-week-old female NOD-Prkdc^scid Il2rg^em1Smoc (M-NSG) mice from the Shanghai Model Organisms Center, Inc. MDA-MB-231 cells (5 × 10^6) were suspended in PBS orthotopically injected into the fat pads of 6- to 7-week-old female BALB/c nude mice from the Shanghai Model Organisms Center, Inc. 4T1 cells (1 × 10^6) were suspended in PBS and injected into the fat pads of 6- to 7-week-old male BALB/c mice from GemPharmatech Co., Ltd. […] For the MMTV-PyMT mice, fourteen 6-week-old female mice were randomly divided into two groups, and no blinding was performed. […] For the combination of B102 or B302 and anti-PD-L1 studies, the mice were randomly divided into four treatment groups without blinding: (1) vehicle; (2) B102 (15 mg/kg, every 2 days) or B302 (50 mg/kg, every 2 days); (3) anti-PD-L1 antibodies (100 μg, dissolved in PBS, every 5 days, Atezolizumab, Clone No.: 2B11D11, Shanghai Lollane biological technology Co., Ltd., Shanghai, China); or (4) combination of B102 or B302 and anti-PD-L1, all treatment via an intraperitoneal injection. Tumor size was monitored with a digital caliper, and tumor volume was calculated using the following equation: volume = (length × width^2)/2. […]

Broadly, the IC50 is the concentration that gives 50% inhibition. On to `O=C(c1cc(Cc2n[nH]c(=O)c3ccccc23)ccc1F)N1CCN(C(=O)C2CC2)CC1` [Olaparib, olaparib, reference compound], for which the clonogenicity entry in test [1] (BRCA1- and HRR-deficient MDA-MB-436 cells) was “reduced the clonogenicity”; in test [1] (MDA-MB-231 and MDA-MB-468 cells) it was “this effect was not observed”. In addition, the “mRNA levels of CCL5 and CXCL10” value in test [2] was “rise in the mRNA levels of CCL5 and CXCL10”. Moreover, the IC50 in test [3] was above 25 µM; in test [4], 28 ± 3.48 µM; in test [5], 8.08 ± 2.02 µM; in test [6], 3.24 ± 2.2 µM; in test [7], 14.5 ± 2.44 µM.
Consider “anti-PD-L1: anti-PD-L1 antibodies (Atezolizumab, Clone No.: 2B11D11), immune checkpoint blockade”, for which the tumor growth entry in test [8] is “restricted tumor growth”.
